In US10941114B2, “Small molecule lipid II inhibitors” (University Of Maryland, Baltimore, priority 2015, dated 2021):
Counter-ions that a name gives are not always drawn. Like-named read-outs stand apart in the source and are kept apart here.

Columns and labels:
[1] = in vivo
Bacillus anthracis = assay type: cell-based
[2] = Pharmacokinetic study in mice (plasma concentration by LC/MS/MS)
in vivo [3] = conditions: iv
Yersinia pestis = assay type: cell-based; conditions: CO92; according to DOD guidelines
Escherichia coli = experiment: Antibacterial activity assay (MIC, broth dilution); assay type: cell-based; conditions: for Bacterial Killing E. coli: determined as in Example 1E (MIC)
Pseudomonas aeruginosa = experiment: Antibacterial activity assay (MIC, broth dilution); assay type: cell-based; conditions: MMX#-ATCC# 103-27853
[4] = system: Burkholderia pseudomallei; assay type: cell-based; conditions: K96243; according to DOD guidelines
Staphylococcus aureus = experiment: Antibacterial activity assay (MIC, broth dilution); assay type: cell-based; set-up: S. aureus Killing / Bacterial Killing S. aureus: unit not given here; conditions: for Bacterial Killing S. aureus: determined as in Example 1E (MIC)
[5] = In vivo efficacy of BAS00127538 (bacteria in spleen and blood); conditions: samples collected at 50 hours post-infection from treated animals
Description: To determine the efficacy of […] in vivo, samples were collected from vehicle-treated animals at 20 hours or at 50 hours post-infection from vancomycin- and BAS-treated animals.

Streptococcus pneumoniae = experiment: Antibacterial activity assay (MIC, broth dilution); assay type: cell-based
Enterococcus faecium = experiment: Antibacterial activity assay (MIC, broth dilution); assay type: cell-based; set-up: Bacterial Killing E. faecium: unit: ug/mL; conditions: for MIC: Enterococcus faecium; for Bacterial Killing E. faecium: determined as in Example 1E (MIC)
Procedure, shortened: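 Broth dilution MIC per CLSI (M07-A10) in cation-adjusted Mueller Hinton broth with 10% brain-heart infusion; MIC is the lowest concentration preventing visible growth, in μg/mL. Some compounds were run by broth microdilution.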

Burkholderia mallei = assay type: cell-based; conditions: 23344; according to DOD guidelines
Enterococcus faecalis = experiment: Antibacterial activity assay (MIC, broth dilution); assay type: cell-based; conditions: for MIC: Enterococcus faecalis
CYP2C19 = CYP2C19 (Homo sapiens, UniProt P33261); experiment: P450 enzyme inhibition (IC50 fluorescence); assay type: in vitro ADME; conditions: substrate CEC: 3-cyano-7-ethoxycoumarin
CYP2D6 = CYP2D6 (Homo sapiens, UniProt P10635); experiment: P450 enzyme inhibition (IC50 fluorescence); assay type: in vitro ADME; conditions: substrate AMMC
[6] = Plasma / serum stability (LC/MS/MS); assay type: in vitro ADME; conditions: 10 μg/mL, 50% serum
HeLa cells = experiment: Cytotoxicity testing (CC50, MTS assay)
[7] = Maximum Tolerated Dose (MTD) and in vivo toxicity at the MTD; conditions: mouse, in vivo, ip
CYP3A4 = CYP3A4 (Homo sapiens, UniProt P08684); experiment: P450 enzyme inhibition (IC50 fluorescence); assay type: in vitro ADME
in vivo [8] = conditions: both, ICR, mouse
[9] = IV administration, single dose […], mice (n=3)
[10] = comparator values repeated from Table 4 (IV, […])
[11] = cation-adjusted Mueller Hinton broth, 10% BHI, read-out: MIC E. faecium C110914
[12] = cation-adjusted Mueller Hinton broth, 10% BHI, read-out: MIC E. faecium IH79985
[13] = cation-adjusted Mueller Hinton broth, 10% BHI, read-out: MIC E. faecium S1559
[14] = cation-adjusted Mueller Hinton broth, 10% BHI, read-out: MIC E. faecalis 51299
[15] = cation-adjusted Mueller Hinton broth, 10% BHI, read-out: MIC E. faecalis 51575
[16] = cation-adjusted Mueller Hinton broth, 10% BHI, read-out: MIC E. faecalis C99707
[17] = PO administration, single oral dose 5 mg/kg, mice (n=3)

Sequence of CYP3A4 (P08684 whole entry): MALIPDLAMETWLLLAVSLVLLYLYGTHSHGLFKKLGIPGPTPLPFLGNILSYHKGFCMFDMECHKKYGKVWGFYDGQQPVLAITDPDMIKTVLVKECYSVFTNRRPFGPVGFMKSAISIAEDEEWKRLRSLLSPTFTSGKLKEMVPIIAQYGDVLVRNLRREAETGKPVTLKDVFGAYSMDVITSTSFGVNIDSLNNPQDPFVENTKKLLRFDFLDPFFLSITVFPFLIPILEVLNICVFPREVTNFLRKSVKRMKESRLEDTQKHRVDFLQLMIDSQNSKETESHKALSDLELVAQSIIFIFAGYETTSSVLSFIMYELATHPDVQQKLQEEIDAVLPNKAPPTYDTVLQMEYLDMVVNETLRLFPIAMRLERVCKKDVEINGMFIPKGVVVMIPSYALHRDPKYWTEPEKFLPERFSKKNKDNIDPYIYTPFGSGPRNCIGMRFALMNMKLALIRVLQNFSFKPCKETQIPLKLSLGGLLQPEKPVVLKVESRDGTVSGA
Sequence of CYP2D6 (P10635 whole entry): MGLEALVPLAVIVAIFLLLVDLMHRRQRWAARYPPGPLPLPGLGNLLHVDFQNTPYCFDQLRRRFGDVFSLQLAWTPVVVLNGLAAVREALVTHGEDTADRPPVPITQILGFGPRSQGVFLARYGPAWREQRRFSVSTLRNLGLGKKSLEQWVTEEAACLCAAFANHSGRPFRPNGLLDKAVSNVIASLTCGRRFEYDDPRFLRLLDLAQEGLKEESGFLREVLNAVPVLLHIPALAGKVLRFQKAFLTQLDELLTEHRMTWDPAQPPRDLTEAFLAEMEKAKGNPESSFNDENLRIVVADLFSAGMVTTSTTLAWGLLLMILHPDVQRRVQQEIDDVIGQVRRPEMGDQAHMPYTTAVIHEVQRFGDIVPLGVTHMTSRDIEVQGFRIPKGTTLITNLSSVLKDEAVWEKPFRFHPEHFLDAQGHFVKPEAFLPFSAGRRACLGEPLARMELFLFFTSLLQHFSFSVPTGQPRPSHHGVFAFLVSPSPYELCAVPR
Sequence of CYP2C19 (P33261 whole entry): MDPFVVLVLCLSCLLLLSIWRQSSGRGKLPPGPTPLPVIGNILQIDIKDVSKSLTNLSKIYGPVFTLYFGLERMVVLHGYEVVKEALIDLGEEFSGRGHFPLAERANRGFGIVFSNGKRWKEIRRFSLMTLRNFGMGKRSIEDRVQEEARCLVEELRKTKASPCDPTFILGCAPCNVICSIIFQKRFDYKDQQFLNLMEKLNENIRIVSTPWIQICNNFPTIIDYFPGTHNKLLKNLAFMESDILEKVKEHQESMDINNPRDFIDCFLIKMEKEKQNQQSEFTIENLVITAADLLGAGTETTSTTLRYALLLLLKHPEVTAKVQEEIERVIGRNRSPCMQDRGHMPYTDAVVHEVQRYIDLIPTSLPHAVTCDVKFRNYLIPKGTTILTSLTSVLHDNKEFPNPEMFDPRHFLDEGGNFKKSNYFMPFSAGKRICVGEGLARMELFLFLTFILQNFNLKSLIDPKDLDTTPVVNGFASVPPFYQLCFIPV

CN1/C(=C/C=C/c2cc(-c3ccccc3)cc(-c3ccccc3)[o+]2)C(C)(C)c2ccccc21 [BAS00127538, 1-methyl-2,4-diphenyl-6-((1E,3E)-3-(1,3,3-trimethylindolin-2-ylidene)pro-p-1-en-1yl)pyryl-1-ium) tetrafluoroborate]
detection in plasma ([1]; mouse, po, 5 mg/kg): could not be detected | MIC Bacillus anthracis (spores)* (Bacillus anthracis; Ames, spores, according to DOD guidelines): 0.5 µg/mL | MIC Bacillus anthracis* (Bacillus anthracis; Ames, according to DOD guidelines): 0.5 µg/mL | MIC Bacillus anthracis Sterne (Bacillus anthracis; MMX#-ATCC# 109-NA): 0.5 µg/mL | Cl_obs [2, 9]: 711 mL/min/kg | T1/2 [2, 9]: 0.227 h | Vss_obs [2, 9]: 12.2 L/kg | T1/2 [2, 10]: 0.227 h | AUClast/D ([2]; comparator values repeated from Table 4 (IV, […]), AUClast/D): 26.9 ng·h/mL | volume of distribution ([2]; intravenous administration, single dose […], mice): 12.2 L/kg | half-life (in vivo [3]; male, CD1, mouse, plasma, […]): 0.22 h | MIC Yersinia pestis* (Yersinia pestis): 8 µg/mL | MIC Escherichia coli (Escherichia coli; MMX#-ATCC# 102.25922): 4 µg/mL | MIC Pseudomonas aeruginosa (Pseudomonas aeruginosa): > 8 µg/mL | MIC Burkholderia pseudomallei* [4]: 64 µg/mL | MIC Staphylococcus aureus (Staphylococcus aureus; MMX#-ATCC# 100-29213): 0.5 µg/mL | survival of treated animals [5]: One animal treated with BAS did not survive beyond 28 hours | MIC Streptococcus pneumoniae (PRSP) (Streptococcus pneumoniae; MMX#-ATCC# 884-NA, penicillin-resistant): 8 µg/mL | MIC Streptococcus pneumoniae (Streptococcus pneumoniae; MMX#-ATCC# 1195-49619): 8 µg/mL | MIC (Enterococcus faecium; [11]): 2 µg/mL | MIC (Enterococcus faecium; [12]): 2 µg/mL | MIC (Enterococcus faecium; [13]): 2 µg/mL | MIC Burkholderia mallei* (Burkholderia mallei): > 64 µg/mL | MIC (Enterococcus faecalis; [14]): 2 µg/mL | MIC (Enterococcus faecalis; [15]): 2 µg/mL | MIC (Enterococcus faecalis; [16]): 2 µg/mL | MIC Enterococcus faecalis (Enterococcus faecalis; MMX#-ATCC# 101-29212): 1 µg/mL | MIC Enterococcus faecalis (VRE) (Enterococcus faecalis; MMX#-ATCC# 848-NA, vancomycin-resistant): 1 µg/mL

CN(C)c1ccc(/C=C/c2cc(-c3ccc(Br)cc3)cc(-c3ccc(Br)cc3)[o+]2)cc1 [Compound 6jc48-1, (E)-2,4-bis(4-bromophenyl)-6-(4-(dimethylamino)styryl)pyrylium boron tetrafluoride salt]
IC50 (CYP2C19): > 10 µM | AUCextrap ([1]; CD1, mouse, po, 5 mg/kg): 48.6% | Vss_obs ([1]; CD1, mouse, po, 5 mg/kg): 1.75 L/kg | Volume of distribution at equilibrium (Vs) ([1]; male, CD1, mouse, iv, […]): 22.8 | Vss_obs ([1]; male, CD1, mouse, iv, […]): 22.8 ± 2.9 L/kg | AUClast/D [2, 9]: 5.36e+08 ± 4.7e+07 ng·h/mL | Cl_obs [2, 9]: 23.6 ± 1.7 mL/min/kg | T1/2 [2, 9]: 13.3 ± 1.8 h | AUCInf [2, 17]: 90 ng·h/mL | AUClast [2, 17]: 46.9 ng·h/mL | Cmax [2, 17]: 19.1 ng/mL | Finf (inferred bioavailability) [2, 17]: 2.54% | Flast (bioavailability at last time point) [2, 17]: 1.9% | T1/2 [2, 17]: 2.78 h | Cl—obs [2, 10]: 23.6 ± 1.7 mL/min/kg | T1/2 [2, 10]: 13.3 ± 1.8 h | Vd (in vivo [3]; male, CD1, mouse, plasma, […]): ~23 L/kg | Vd (in vivo [3]; male, mouse, in vivo, […]): 22.8 ± 2.9 L/kg | IC50 (CYP2D6): > 10 µM | Bacterial Killing E. coli (Escherichia coli): >64 | stability in serum ([6]; after 2 hours): stable after 2 hours in serum | compound remaining ([6]; after 19 hours): 46% | Bacterial Killing S. aureus (Staphylococcus aureus): 16 | reduction in cytotoxicity compared to the parent BAS00127538 (HeLa cells): 50 fold | MIC (Enterococcus faecium; [11]): 4 µg/mL | MIC (Enterococcus faecium; [12]): 8 µg/mL | MIC (Enterococcus faecium; [13]): 2 µg/mL | MIC (Enterococcus faecium; clinical isolates sensitive to linezolid and daptomycin, n = 5, read-out: MIC E. faecium* clinical isolates): 4 to 16 µg/mL | Bacterial Killing E. faecium (Enterococcus faecium): 4 | MTD [7]: ≤ 100 mg/kg | IC50 (CYP3A4; substrate BFC: 7-benzoyloxy-4-triflluoromethyl coumarin, read-out: P450 enzyme inhibition (IC50 fluorescence) CYP3A4/BFC): 1.3 µM | IC50 (CYP3A4; substrate DBF: dibenzylfluorescein, read-out: P450 enzyme inhibition (IC50 fluorescence) CYP3A4/DBF): > 10 µM | MIC (Enterococcus faecalis; MIC quoted with the macromolecular synthesis data (FIG. 11), strain not given, MMS run on E. faecalis EF1509, read-out: MIC): 4 µg/mL | MIC (Enterococcus faecalis; [14]): 4 µg/mL | MIC (Enterococcus faecalis; [15]): 2 µg/mL | MIC (Enterococcus faecalis; [16]): 2 µg/mL | MIC (Enterococcus faecalis; clinical isolates sensitive to linezolid and daptomycin, n = 5, read-out: MIC E. faecalis* clinical isolates): 4 to 16 µg/mL

CN(C)c1ccc(/C=C/c2cc(-c3ccc(F)cc3)cc(-c3ccc(F)cc3)[o+]2)cc1 [Compound 7jc47-1, (E)-2-(4-(dimethylamino)styryl)-4,6-bis(4-fluorophenyl) pyrylium boron tetrafluoride salt]
AUCextrap ([1]; CD1, mouse, iv, 10 mg/kg): 2.25 ± 1.13% | Cl3 ([1]; CD1, mouse, iv, 10 mg/kg): 23.6 ± 1.7 mL/min/kg | T1/2 ([2]; mouse, in vivo, iv, 10 mg/kg): 6.81 ± 1.33 h | AUC(0-inf) (in vivo [3]; CD1, mouse, plasma, 10 mg/kg): 578 ± 175 ng·h/mL | Cmax (in vivo [3]; CD1, mouse, plasma, 10 mg/kg): 3220 ± 1500 ng/mL | MRT (in vivo [3]; CD1, mouse, plasma, 10 mg/kg): 1.74 ± 0.49 h | Vd (in vivo [3]; CD1, mouse, plasma, 10 mg/kg): 46.3 ± 12.9 L/kg | half-life (in vivo [3]; CD1, mouse, plasma, 10 mg/kg): ~7 h | Bacterial Killing E. coli (Escherichia coli): >64 | MTD at 72 h (in vivo [8]): 60 mg/kg | Bacterial Killing S. aureus (Staphylococcus aureus): 1 | cytotoxicity in vitro (HeLa cells): no observable cytotoxicity in vitro | Bacterial Killing E. faecium (Enterococcus faecium): 1
